# In PMC10411625, “Rationally designed stapled peptides allosterically inhibit PTBP1–RNA-binding” (Chemical Science, 2023):
# Columns and labels:
# [1] = Peptide stability in HEK293T cell lysate; format: in vitro ADME; conditions: human, HEK293T lysate 1 mg/ml in PBS, 1 mM peptide, 37 °C, HPLC/LCMS peak area normalized to ethylparaben standard, read-out: peptide still intact after 24 hours in cell lysate
# Text: Stapled peptides have been reported to be able to pass cell membranes with high efficiency, but their cell permeability is dependent on the peptide sequence and the position of the staple.[41] To evaluate whether the α3-helix derived peptide is cell permeable, we used azidolysine derivatized variants of P-6 and P-6S (P-6-Az and P-6S-Az) and used them in the NanoClick assay.[60] In this assay cells are transfected to express a NanoLuc–HaloTag fusion protein followed by treatment with a dibenzoazacyclooctyne reagent modified with a chloroalkane (DIBAC–CA) that covalently modifies the HaloTag protein. When an azide modified NanoBRET acceptor (NB618-Az) is added, it will undergo strain promoted azide–alkyne cycloaddition (SPAAC) with the DIBAC–CA placing the acceptor in the proximity of the NanoLuc protein leading to an observable BRET signal. […] The SPAAC reaction only happens if the peptide is able to reach the cytosol and the assay therefore provides a read-out of cell-permeability. […]
# Peptide stability was measured in HEK293T lysates. […]
# The samples were chilled on ice for 15 min and insoluble material was removed by centrifugation (16873 x g, 4 °C, 10 min). The supernatant was analysed by LCMS with a gradient of H2O (0.1% TFA) and ACN (0.1% TFA) from 5 to 95 % over 20 min. […]
# [2] = Helicity by circular dichroism spectroscopy; format: physicochemical; conditions: 50 µM peptide, 20 mM sodium phosphate pH 8.0, 10 mM NaF, 20 °C, triplicates, JASCO multivariate secondary structure analysis
# Text: For the initial design we used the i, i + 4 strategy where two (S)-pentenyl alanines (S5) were introduced in positions with three other amino acids in between. We picked three different amino acid pairs to replace with the S5 amino acids based on their orientation as observed in the NMR structures (P-2, P-3 and P-4, Fig. 2B and C).[25] To prevent the staple from disturbing the interaction between the ligand and the protein we chose positions facing away from the binding site forming the pairs Ala145/Ala149, Gln148/Gln152, and Ala149/Ala153. The three peptides were synthesized on Rink amide resin and the linear peptides were treated with a Grubbs catalyst to connect the S5 residues. To avoid a mixture of E/Z-diastereomers we reduced the alkene in the linker of the staple using a solution phase hydrogenation protocol.[43] The linear equivalent P-1 was synthesized for comparison but had to be extended on the C-terminus with an arginine residue to improve its solubility. The C-terminus is away from the binding surface and this modification was therefore not expected to have an impact on the binding affinity. The peptides were tested in a competitive fluorescence polarization assay using the RRM12 construct and RNA-2 (Fig. 2C and S2 ^†). […] As the staple is expected to stabilize the α-helical conformation we used circular dichroism (CD) spectroscopy to evaluate the helicity of the peptides. […] It is possible that although P-4 was more helical than P-3, the replacement of Gln148 with the hydrophobic linker disturbed the interaction since the side chain amide potentially interacts with the RRM1 surface. […]
# performed in FP bufferPTBP1. […]
# serially diluted in the same buffer. […]
# a final concentration of 10 nM probe. […]
# the settings mentioned previously.
# Fluorescence polarization assay with SRSF1
# Fluorescence polarization was
# Fluorescence polarization assay with hnRNPA2/B1
# For the competitive assay 10 nM
# Microscale thermophoresis […]
# afterwards serially diluted into FP buffer.
# The data was evaluated at […]
# experiments were performed in duplicates.
# Circular Dichroism Spectroscopy […]
Compound,"remaining at 24 h, 1 mM [1]",Helicity by CD spectroscopy [2]
CC(=O)N[C@@H](CC(N)=O)C(=O)N[C@@H](CCC(N)=O)C(=O)N[C@@]1(C)CCCC=CCCCC2(CCCC=CCCC[C@](C)(C(=O)N[C@H](C(=O)N[C@@H](CC(N)=O)C(N)=O)C(C)C)NC(=O)[C@H](CCC(N)=O)NC(=O)[C@H](CC(C)C)NC(=O)[C@H](C)NC2=O)NC(=O)[C@H](CCC(N)=O)NC(=O)[C@H](C)NC(=O)[C@H](CCCNC(=N)N)NC1=O (stereo partly drawn) [Peptide P-6],43%,–
CC(=O)N[C@@H](CC(N)=O)C(=O)N[C@@H](CCC(N)=O)C(=O)N[C@@]1(C)CCCCCCCC[C@@](C)(C(=O)N[C@@H](C)C(=O)N[C@@H](CC(C)C)C(=O)N[C@@H](CCC(N)=O)C(=O)N[C@@H](C)C(=O)N[C@H](C(=O)N[C@@H](CC(N)=O)C(N)=O)C(C)C)NC(=O)[C@H](CCC(N)=O)NC(=O)[C@H](C)NC(=O)[C@H](CCCNC(=N)N)NC1=O [Peptide P-2],12%,92.3%
